According to paper PMC6130628, “Some pharmacokinetic parameters of salvianolic acid A following single-dose oral administration to rats” (Pharmaceutical Biology, 2018):
Like-named read-outs stand apart in the source and are kept apart here.

Experiments:
[1] = design: method as in Lai et al. [2011]; details: rats, salvianolic acid extract 800 mg/kg oral (Sal A 5.71% of mixture); ref Lai et al. [2011]; cited from earlier work
[2] = design: method as in Pei et al. [2008]; details: oral administration at 100 mg/kg; ref Pei et al. [2008]; cited from earlier work
[3] = Pharmacokinetic study in vivo (plasma, LC–MS, noncompartmental); details: both sexes, Sprague-Dawley, rat, rats; for MRT last: read-out: MRT0–t; for AUC(0-t) / Cmax: single dose
Method: Ninety-six healthy, intact Sprague-Dawley rats (male/female, 1/1, 185-215 g, Certificate No. SCXK 2006-0009) were purchased from Vital River Laboratories (Beijing, China). The rats were maintained in air-conditioned animal quarters with alternating 12 h light/dark cycles at a room temperature of 22 ± 2 °C and a relative humidity of 50 ± 10%. The rodents were given a commercial rat chow and water ad libitum. The experiment started after acclimation to the facilities for 7 days. All animal studies were conducted in accordance with “Principles of laboratory animal care” (NIH publication No. 85-23, revised 1985) and under protocols approved by the Ethic Committee of Laboratory Animals of the Affiliated Hospital of Qingdao University ([…] 2013-2-4-01). Rats were fasted overnight (∼12 h) and had free access to water throughout the experimental period. […] The doses applied in this study were determined according to, on the one hand, the doses applied in pharmacodynamic experiments in rats (Yang et al. [2011a]; Yang et al. [2011b]; Yu et al. [2012]; Hou et al. [2017]), and on the other hand, the results of our preliminary absorption experiments. The blood samples were taken crossly from the orbital sinus into tubes pretreated with heparin before dosing and subsequently at 0.083, 0.167, 0.25, 0.333, 0.5, 0.75, 1, 2, 4, 8, 12 and 24 h postdosing. After blood sampling, the samples were centrifuged at 4,500 rpm for 15 min at 4 °C to obtain 200 μL of plasma samples. These samples were immediately frozen and maintained at -80 °C until analysis. Plasma samples were thawed at room temperature before processing. To a 200 μL aliquot of plasma sample, 10 μL of VC (10 mg/mL) and 10 μL of the IS spiking solution (butyl paraben, 1 μg/mL) were added. Then, the mixture was acidified with 100 μL of 1 mol/L HCl and vortex-mixed with 800 μL of EtOAc for 3 min. […] EtOAc (800 μL) was added again to the lower aqueous phase and the extraction process was repeated. […] The residue was reconstituted in 100 μL of MeOH-H2O (50:50, v/v, containing VC 100 μg/mL). After centrifugation at 13,400 rpm for 5 min, 20 μL of the supernatant was injected to the LC-MS system. DAS pharmacokinetic software Data Analysis System Version 3.0 (Bontz Inc., Beijing, China) was used for pharmacokinetic analysis of Sal A concentrations. The noncompartmental model was applied for analysis of the data following intravenous and oral administration of Sal A. The peak plasma concentration (Cmax), the corresponding time (Tmax), the mean residence time (MRT) and the area under the concentration-time curve (AUC) could all be obtained. After intravenous and oral administration of Sal A to rats, plasma concentration was determined by LC-MS. The data obtained from each group was averaged. […] The oral bioavailability (F) was calculated by using AUCoral/dose divided by AUCiv/dose.

Caco-2 cell monolayer = assay: Bidirectional transport experiments in the Caco-2 cell culture model; type: in vitro ADME
Method: Caco-2 cells (passage number 34–36, American Type Culture Collection, Manassas, VA) were cultured at 37 °C in an atmosphere of 5% CO2 and 90% relative humidity in Dulbecco’s modified Eagle’s medium supplemented with 10% fetal bovine serum, 1% penicillin–streptomycin, 1% HEPES, 1% sodium pyruvate and 1% minimal essential medium nonessential amino acids. After harvesting at 90% confluence, the cells were seeded on to 0.4 μm polycarbonate membrane transwell inserts (12 mm diameter) at a density of 1.5 × 10^5 cells/cm^2. The culture media was changed every other day during the first 7 days after seeding and once a day thereafter. Cell monolayers were ready for experiments from 20 to 24 days postseeding.
Experiments in triplicate were performed in HBSS (pH =7.4).To ensure the stability of Sal A in HBSS, VC was applied in this study as stabilizer. The monolayers were washed three times with prewarmed HBSS (37 °C) before use. The integrity of the Caco-2 monolayers was monitored by measuring the transepithelial electrical resistance, and only monolayers with values ≥400 Ω/cm^2 were used. The monolayers were incubated with HBSS at 37 °C for 30 min, and then the incubation medium was aspirated. Afterwards, bidirectional transport experiments were conducted. Sal A solution of appropriate concentrations in HBSS (containing VC 1 0^−4 mol/L) were loaded to the donor compartments and the blank HBSS (containing VC 1 0^−4 mol/L) was added to the receiver compartments. Seven sequential samples (50 μL) were collected at different times (0, 30, 60, 90, 120, 150, 180 min) from the receiver side. The same volume of receiver medium was replaced after each sampling. The collected samples were added into tubes with 40 μL MeOH–H2O (50:50, v/v, containing VC 100 μg/mL). Then, 10 μL of the IS spiking solution (butyl paraben, 1 μg/mL) was added. After centrifugation at 13,400 rpm for 5 min, 20 μL of the supernatant was injected to the LC–MS system.
Influence of the stabilizer on the transport of Sal A has also been tested under the condition of different concentrations of VC. The samples were collected, treated and analyzed according to the same procedure.
The apparent permeability coefficient (Papp) was calculated according to the following equation: Papp=(ΔQ/Δt)/(A×C0) where ΔQ/Δt is the linear appearance rate of the tested compound in the receiver compartments, A is the surface area of the cell monolayer and C0 is the initial concentration of the tested compound in the donor side.

O=C(/C=C/c1ccc(O)c(O)c1/C=C/c1ccc(O)c(O)c1)O[C@H](Cc1ccc(O)c(O)c1)C(=O)O [Sal A, Salvianolic acid A]
absolute bioavailability of Sal A [1]: 2.5% | plasma half-life [2]: 3.29 h | MRT last ([3]; iv, 50 ug/kg, i.v. 50 µg/kg): 0.62 h | Tmax ([3]; iv, 50 ug/kg, i.v. 50 µg/kg, read-out: Tmax): 0.08 h | half-life ([3]; iv, 50 ug/kg, i.v. 50 µg/kg, read-out: t1/2 (converted)): 6.16 h | AUC(0-t) ([3]; iv, 50 ug/kg, i.v. 50 µg/kg): 205 ng·h/mL | Cmax ([3]; iv, 50 ug/kg, i.v. 50 µg/kg): 579 ng/mL | bioavailability ([3]; po, 5 mg/kg, oral 5 mg/kg vs i.v. 50 µg/kg, AUCoral/dose divided by AUCiv/dose, read-out: F (oral bioavailability)): 0.52% | Tmax ([3]; po, 5 mg/kg, oral 5 mg/kg, read-out: Tmax): 1 h | half-life ([3]; po, 5 mg/kg, oral 5 mg/kg, read-out: t1/2 (converted)): 1.96 h | bioavailability ([3]; po, 10 mg/kg, oral 10 mg/kg vs i.v. 50 µg/kg, read-out: F (oral bioavailability)): 0.41% | Tmax ([3]; po, 10 mg/kg, oral 10 mg/kg, read-out: Tmax): 1 h | half-life ([3]; po, 10 mg/kg, oral 10 mg/kg, read-out: t1/2 (converted)): 1.72 h | bioavailability ([3]; po, 20 mg/kg, oral 20 mg/kg vs i.v. 50 µg/kg, read-out: F (oral bioavailability)): 0.39% | Tmax ([3]; po, 20 mg/kg, oral 20 mg/kg, read-out: Tmax): 1 h | half-life ([3]; po, 20 mg/kg, oral 20 mg/kg, read-out: t1/2 (converted)): 1.79 h | bioavailability ([3]; po, 20 mg/kg, oral in pure form, over the doses 5, 10 and 20 mg/kg, read-out: absolute (oral) bioavailability): 0.39 to 0.52% | half-life ([3]; po, 20 mg/kg, oral, over the doses 5, 10 and 20 mg/kg, read-out: half-life period (t1/2)): 1.72 to 1.96 h | Tmax ([3]; po, oral, 5–20 mg/kg, read-out: time to peak concentration in plasma (Tmax)): ≤ 1 h | MRT last ([3]; oral 5 mg/kg): 2.91 h | AUC(0-t) ([3]; oral 5 mg/kg): 106 ng·h/mL | Cmax ([3]; oral 5 mg/kg): 31.5 ng/mL | MRT last ([3]; oral 10 mg/kg): 2.33 h | AUC(0-t) ([3]; oral 10 mg/kg): 167 ng·h/mL | Cmax ([3]; oral 10 mg/kg): 57.4 ng/mL | MRT last ([3]; oral 20 mg/kg): 2.36 h | AUC(0-t) ([3]; oral 20 mg/kg): 317 ng·h/mL | Cmax ([3]; oral 20 mg/kg): 112 ng/mL | influence of VC concentration on the amount of Sal A transported (Caco-2 cell monolayer; different VC concentrations, p> 0.05): no significant difference | membrane permeability (classification by Papp) (Caco-2 cell monolayer; poorly absorbed: Papp <1 × 10^−6 cm/s): poor membrane permeability
